Patent US10670605B2, “Cysteine reactive probes and uses thereof” (The Scripps Research Institute, priority 2015, dated 2020)

Key:
Test in all cases: Competitive isoTOP-ABPP in situ (fragment-treated cells)
Format in all cases: cell-based
[1] = target: T1, cysteines in MDA-MB-231 and Ramos cells (Homo sapiens, UniProt Q9BRA2)
T1 sequence (Q9BRA2 1-123): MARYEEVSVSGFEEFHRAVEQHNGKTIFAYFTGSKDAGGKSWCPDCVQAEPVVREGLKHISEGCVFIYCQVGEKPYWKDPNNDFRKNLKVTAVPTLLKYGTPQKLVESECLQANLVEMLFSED

[2] = target: T2, cysteines in MDA-MB-231 and Ramos cells (Homo sapiens, UniProt Q9HCC0)
T2 sequence (Q9HCC0 23-563): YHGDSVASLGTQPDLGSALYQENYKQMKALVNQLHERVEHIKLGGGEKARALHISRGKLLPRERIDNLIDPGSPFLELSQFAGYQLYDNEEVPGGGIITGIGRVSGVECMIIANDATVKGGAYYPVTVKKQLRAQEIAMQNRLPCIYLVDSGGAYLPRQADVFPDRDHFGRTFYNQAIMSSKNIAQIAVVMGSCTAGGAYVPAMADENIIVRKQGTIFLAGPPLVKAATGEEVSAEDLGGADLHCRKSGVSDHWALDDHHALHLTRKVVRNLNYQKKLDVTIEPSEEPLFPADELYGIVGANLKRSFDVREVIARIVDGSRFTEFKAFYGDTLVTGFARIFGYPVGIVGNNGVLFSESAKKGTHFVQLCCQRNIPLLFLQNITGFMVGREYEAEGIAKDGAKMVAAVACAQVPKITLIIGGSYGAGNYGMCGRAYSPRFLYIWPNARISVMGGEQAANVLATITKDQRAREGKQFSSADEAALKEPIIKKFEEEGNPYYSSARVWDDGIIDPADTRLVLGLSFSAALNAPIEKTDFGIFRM

[3] = target: cysteines in MDA-MB-231 and Ramos cells (Homo sapiens, UniProt P62888)
[4] = target: T3, cysteines in MDA-MB-231 and Ramos cells (Homo sapiens, UniProt Q96AB3)
T3 sequence (Q96AB3 1-205): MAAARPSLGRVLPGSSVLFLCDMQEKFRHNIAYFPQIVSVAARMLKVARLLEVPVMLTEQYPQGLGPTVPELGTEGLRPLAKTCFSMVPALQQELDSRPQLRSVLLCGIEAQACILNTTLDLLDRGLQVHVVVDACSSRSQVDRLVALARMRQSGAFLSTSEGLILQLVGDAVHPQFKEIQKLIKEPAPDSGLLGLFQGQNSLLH

[5] = target: cysteines in MDA-MB-231 and Ramos cells (Homo sapiens, UniProt Q15021)
[6] = target: T4, cysteines in MDA-MB-231 and Ramos cells (Homo sapiens, UniProt Q9NQR4)
T4 sequence (Q9NQR4 1-276): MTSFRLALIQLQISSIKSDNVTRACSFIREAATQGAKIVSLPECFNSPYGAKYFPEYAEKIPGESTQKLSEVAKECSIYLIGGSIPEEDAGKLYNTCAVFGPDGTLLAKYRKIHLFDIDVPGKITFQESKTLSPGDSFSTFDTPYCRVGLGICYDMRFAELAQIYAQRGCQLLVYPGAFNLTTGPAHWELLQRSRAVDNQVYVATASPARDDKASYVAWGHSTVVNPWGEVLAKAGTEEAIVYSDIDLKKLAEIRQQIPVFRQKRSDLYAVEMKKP

[7] = target: T5, cysteines in MDA-MB-231 and Ramos cells (Homo sapiens, UniProt Q9UKF6)
T5 sequence (Q9UKF6 1-684): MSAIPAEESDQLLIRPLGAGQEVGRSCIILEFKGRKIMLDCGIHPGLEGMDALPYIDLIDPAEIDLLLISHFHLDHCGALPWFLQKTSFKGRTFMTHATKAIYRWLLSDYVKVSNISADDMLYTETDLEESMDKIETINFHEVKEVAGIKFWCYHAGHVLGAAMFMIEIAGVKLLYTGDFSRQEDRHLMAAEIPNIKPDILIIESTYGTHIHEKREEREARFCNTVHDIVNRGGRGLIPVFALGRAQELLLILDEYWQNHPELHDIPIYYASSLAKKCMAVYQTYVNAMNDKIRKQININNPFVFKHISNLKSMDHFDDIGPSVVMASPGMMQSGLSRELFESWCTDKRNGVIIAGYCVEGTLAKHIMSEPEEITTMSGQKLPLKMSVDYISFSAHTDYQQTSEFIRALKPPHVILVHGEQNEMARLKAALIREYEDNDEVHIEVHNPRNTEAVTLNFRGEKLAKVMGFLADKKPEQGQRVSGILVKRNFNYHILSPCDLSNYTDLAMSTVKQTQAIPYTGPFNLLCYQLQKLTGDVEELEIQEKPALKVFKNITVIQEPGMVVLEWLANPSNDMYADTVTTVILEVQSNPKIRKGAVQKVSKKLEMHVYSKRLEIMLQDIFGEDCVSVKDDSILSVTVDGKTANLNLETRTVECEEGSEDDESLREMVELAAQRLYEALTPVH

cysteines in MDA-MB-231 and Ramos cells (Homo sapiens, UniProt Q15021), sequence (Q15021 whole entry): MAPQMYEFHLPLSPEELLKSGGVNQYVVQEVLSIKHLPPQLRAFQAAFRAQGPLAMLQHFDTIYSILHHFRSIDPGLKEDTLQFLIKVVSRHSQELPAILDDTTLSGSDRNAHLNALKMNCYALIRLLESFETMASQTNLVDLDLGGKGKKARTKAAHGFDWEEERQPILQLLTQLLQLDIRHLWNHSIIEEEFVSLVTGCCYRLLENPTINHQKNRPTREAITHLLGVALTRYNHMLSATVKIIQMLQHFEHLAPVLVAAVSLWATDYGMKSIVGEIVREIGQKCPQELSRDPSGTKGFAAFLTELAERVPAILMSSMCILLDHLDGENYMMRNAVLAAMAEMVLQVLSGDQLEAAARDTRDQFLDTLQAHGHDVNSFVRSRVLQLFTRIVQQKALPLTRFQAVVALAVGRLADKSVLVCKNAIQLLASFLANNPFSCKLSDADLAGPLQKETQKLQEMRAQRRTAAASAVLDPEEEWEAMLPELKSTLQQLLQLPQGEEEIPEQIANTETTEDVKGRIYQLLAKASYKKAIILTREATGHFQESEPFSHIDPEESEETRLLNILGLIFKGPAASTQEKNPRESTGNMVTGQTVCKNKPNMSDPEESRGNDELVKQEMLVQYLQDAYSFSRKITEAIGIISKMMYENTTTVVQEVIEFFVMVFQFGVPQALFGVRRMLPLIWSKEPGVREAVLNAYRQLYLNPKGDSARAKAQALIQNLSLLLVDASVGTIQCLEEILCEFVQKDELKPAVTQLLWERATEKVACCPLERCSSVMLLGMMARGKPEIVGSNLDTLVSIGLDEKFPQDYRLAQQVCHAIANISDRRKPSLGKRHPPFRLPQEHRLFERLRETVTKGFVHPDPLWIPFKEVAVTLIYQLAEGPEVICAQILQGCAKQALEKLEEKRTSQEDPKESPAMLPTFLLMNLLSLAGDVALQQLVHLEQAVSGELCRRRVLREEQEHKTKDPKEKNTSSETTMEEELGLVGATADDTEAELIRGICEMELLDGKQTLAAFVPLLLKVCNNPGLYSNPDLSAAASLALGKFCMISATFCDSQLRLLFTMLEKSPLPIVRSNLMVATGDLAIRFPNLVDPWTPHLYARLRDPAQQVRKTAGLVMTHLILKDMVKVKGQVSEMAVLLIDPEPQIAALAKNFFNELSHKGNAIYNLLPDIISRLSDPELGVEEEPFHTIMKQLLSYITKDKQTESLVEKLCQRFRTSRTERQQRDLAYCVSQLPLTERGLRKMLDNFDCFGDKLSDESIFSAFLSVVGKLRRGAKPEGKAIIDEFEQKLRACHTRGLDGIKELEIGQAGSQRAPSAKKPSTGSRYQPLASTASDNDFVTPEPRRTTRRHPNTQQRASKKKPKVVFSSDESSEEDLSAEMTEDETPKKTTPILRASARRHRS

SMILES | isoTOP-ABPP ratio Q9BRA2_C43 ([1]; 200 μM, insitu, 231) | isoTOP-ABPP ratio Q9HCC0_C216 ([2]; 200 μM, insitu, 231) | isoTOP-ABPP ratio P62888_C92 ([3]; 200 μM, insitu, 231) | isoTOP-ABPP ratio Q96AB3_C114 ([4]; 200 μM, insitu, 231) | isoTOP-ABPP ratio Q15021_C439 ([5]; 200 μM, insitu, 231) | isoTOP-ABPP ratio Q9NQR4_C153 ([6]; 200 μM, insitu, 231) | isoTOP-ABPP ratio Q9UKF6_C498 ([7]; 200 μM, insitu, 231) | further results
CC(C)CCOCCNC(=O)CCl [compound 27] | 20.0 | 1.0 | 0.6 | 1.0 | 0.6 | 1.3 | 1.5 | 
COc1cc2c(cc1OC)CN(C(=O)CCl)CC2 [compound 8] |  |  |  |  |  |  |  | isoTOP-ABPP reactivity Q9BRA2_C43 TXNDC17 ([1]; 200 μM, insitu, 231): 20.0; isoTOP-ABPP reactivity Q9HCC0_C216 MCCC2 ([2]; 200 μM, insitu, 231): 3.9; isoTOP-ABPP reactivity P62888_C92 RPL30 ([3]; 200 μM, insitu, 231): 1.5; isoTOP-ABPP reactivity Q96AB3_C114 ISOC2 ([4]; 200 μM, insitu, 231): 4.7; isoTOP-ABPP reactivity Q15021_C439 NCAPD2 ([5]; 200 μM, insitu, 231): 0.6; isoTOP-ABPP reactivity Q9NQR4_C153 N1T2 ([6]; 200 μM, insitu, 231): 20.0; isoTOP-ABPP reactivity Q9UKF6_C498 CPSF3 ([7]; 200 μM, insitu, 231): 20.0
COc1ccc(C2CC(c3cccs3)=NN2C(=O)CCl)cc1 (stereo not shown) [compound 4] |  |  |  |  |  |  |  | isoTOP-ABPP reactivity Q9BRA2_C43 TXNDC17 ([1]; 100 μM in situ 231): 3.5; isoTOP-ABPP reactivity Q9HCC0_C216 MCCC2 ([2]; 100 μM in situ 231): 5.9; isoTOP-ABPP reactivity P62888_C92 RPL30 ([3]; 100 μM in situ 231): 2.7; isoTOP-ABPP reactivity Q96AB3_C114 ISOC2 ([4]; 100 μM in situ 231): 0.8; isoTOP-ABPP reactivity Q15021_C439 NCAPD2 ([5]; 100 μM in situ 231): 2.2; isoTOP-ABPP reactivity Q9NQR4_C153 N1T2 ([6]; 100 μM in situ 231): 0.7; isoTOP-ABPP reactivity Q9UKF6_C498 CPSF3 ([7]; 100 μM in situ 231): 3.5
O=C(CCl)Nc1cccc2ncccc12 [compound 51] |  | 0.9 | 0.9 | 0.8 | 1.1 | 0.6 |  | 
COc1ccccc1OCCNC(=O)CCl [compound 28] |  |  | 0.9 | 0.8 | 0.9 |  |  | 
O=C(CCl)N1CCN(S(=O)(=O)c2ccccc2F)CC1 [compound 10] | 20.0 | 2.3 | 1.3 | 20.0 | 5.2 | 20.0 | 20.0 | isoTOP-ABPP ratio P62888_C92 ([3]; 200 μM, insitu, ramos): 4.5; isoTOP-ABPP ratio Q9UKF6_C498 ([7]; 200 μM, insitu, ramos): 2.8
CC1CCc2ccccc2N1C(=O)CCl (stereo not shown) [compound 45] | 8.0 | 7.0 | 2.2 | 3.1 |  | 2.0 | 20.0 | 
Cc1ccc(C=C(C#N)C(=O)NCCN2CCOCC2)cc1 [compound 41] | 0.6 | 1.0 | 0.8 | 0.7 | 0.8 | 0.7 | 1.0 | 
COc1ccc2c(c1)CCCN2C(=O)CCl [compound 2] |  |  |  |  |  |  |  | isoTOP-ABPP reactivity Q9BRA2_C43 TXNDC17 ([1]; 200 μM, insitu, 231): 15.5; isoTOP-ABPP reactivity Q9HCC0_C216 MCCC2 ([2]; 200 μM, insitu, 231): 4.6; isoTOP-ABPP reactivity P62888_C92 RPL30 ([3]; 200 μM, insitu, 231): 1.0; isoTOP-ABPP reactivity Q96AB3_C114 ISOC2 ([4]; 200 μM, insitu, 231): 1.6; isoTOP-ABPP reactivity Q9NQR4_C153 N1T2 ([6]; 200 μM, insitu, 231): 13.1; isoTOP-ABPP reactivity Q9UKF6_C498 CPSF3 ([7]; 200 μM, insitu, 231): 6.2
C=CC(=O)Nc1cc(F)c(N2CCN(C(=O)OC(C)(C)C)CC2)c(F)c1 [compound 38] | 1.1 |  | 3.2 | 1.2 | 1.1 | 1.1 |  | 
O=C(CCl)NC(=O)NC12CC3CC(CC(C3)C1)C2 [compound 12] | 20.0 | 20.0 | 1.1 | 1.6 | 6.7 | 0.9 | 4.1 | 
C=CC(=O)N(Cc1cccnc1)c1cc(C(F)(F)F)cc(C(F)(F)F)c1 [compound 31] | 0.6 |  |  | 0.7 | 20.0 | 0.6 |  | isoTOP-ABPP ratio Q9NQR4_C153 ([6]; 200 μM, insitu, ramos): 1.4
Cn1cc(S(=O)(=O)N2CCOCC2)cc1C(=O)NC(=O)CCl [compound 11] |  |  |  |  |  |  |  | isoTOP-ABPP ratio Q9BRA2_C43 ([1]; 100 μM in situ 231): 17.7; isoTOP-ABPP ratio Q9HCC0_C216 ([2]; 100 μM in situ 231): 1.9; isoTOP-ABPP ratio P62888_C92 ([3]; 100 μM in situ 231): 0.8; isoTOP-ABPP ratio Q96AB3_C114 ([4]; 100 μM in situ 231): 0.9; isoTOP-ABPP ratio Q15021_C439 ([5]; 100 μM in situ 231): 0.9; isoTOP-ABPP ratio Q9NQR4_C153 ([6]; 100 μM in situ 231): 3.7; isoTOP-ABPP ratio Q9UKF6_C498 ([7]; 100 μM in situ 231): 1.3
O=C(CCl)NCCc1c[nH]c2ccccc12 [compound 13] | 20.0 |  | 0.8 | 2.4 |  | 6.2 |  | isoTOP-ABPP ratio Q9BRA2_C43 ([1]; 200 μM, insitu, ramos): 5.2; isoTOP-ABPP ratio Q9HCC0_C216 ([2]; 200 μM, insitu, ramos): 1.8; isoTOP-ABPP ratio P62888_C92 ([3]; 200 μM, insitu, ramos): 2.0; isoTOP-ABPP ratio Q9NQR4_C153 ([6]; 200 μM, insitu, ramos): 12.2; isoTOP-ABPP ratio Q9UKF6_C498 ([7]; 200 μM, insitu, ramos): 1.4
O=C(CCl)N1CCN(CC(=O)N2CCOCC2)CC1 [compound 29] |  |  |  |  |  |  |  | isoTOP-ABPP ratio Q9BRA2_C43 ([1]; 200 μM, insitu, ramos): 2.3; isoTOP-ABPP ratio P62888_C92 ([3]; 200 μM, insitu, ramos): 2.0; isoTOP-ABPP ratio Q96AB3_C114 ([4]; 200 μM, insitu, ramos): 1.1; isoTOP-ABPP ratio Q15021_C439 ([5]; 200 μM, insitu, ramos): 1.4; isoTOP-ABPP ratio Q9UKF6_C498 ([7]; 200 μM, insitu, ramos): 2.3
O=C(CCl)NC12CC3CC(CC(C3)C1)C2 [compound 21] | 16.0 | 2.2 | 0.9 | 4.9 | 0.7 | 0.9 | 1.4 | 
O=C(CCl)N1CCC(Cc2ccccc2)CC1 [compound 9] |  |  |  |  |  |  |  | isoTOP-ABPP reactivity Q9BRA2_C43 TXNDC17 ([1]; 200 μM, insitu, 231): 20.0; isoTOP-ABPP reactivity P62888_C92 RPL30 ([3]; 200 μM, insitu, 231): 1.3; isoTOP-ABPP reactivity Q15021_C439 NCAPD2 ([5]; 200 μM, insitu, 231): 6.1; isoTOP-ABPP reactivity Q9NQR4_C153 N1T2 ([6]; 200 μM, insitu, 231): 20.0
